In PMC5344255, “Design, Synthesis and Biochemical Evaluation of Novel Selective Estrogen Receptor Ligand Conjugates Incorporating an Endoxifen-Combretastatin Hybrid Scaffold” (Biomedicines, 2016):
Several values for one entry are separate records, joined by “and”; a condition that tells them apart may be missing. Identical values can stand only once. Like-named read-outs stand apart in the source and are kept apart here. Marks after values point to notes of the source that are not given here.

Key:
NCI-H332M = test: NCI 60 cell line screen; format: cell-based, human; conditions: NCI-H332M (Non-Small Cell Lung Cancer)
NCI 60 cell lines = test: NCI 60 cell line screen, values over the panel; format: cell-based; conditions: Homo sapiens
SNB-19 = test: NCI 60 cell line screen; format: cell-based, human; conditions: SNB-19 (CNS Cancer)
MCF-7 = test: NCI 60 cell line screen; format: cell-based; conditions: Homo sapiens
NCI-H460 = test: NCI 60 cell line screen; format: cell-based, human; conditions: NCI-H460 (Non-Small Cell Lung Cancer)
IGROV1 = test: NCI 60 cell line screen; format: cell-based, human; conditions: IGROV1 (Ovarian Cancer); one-dose 10 µM
SF295 = test: NCI 60 cell line screen; format: cell-based, human; conditions: SF295 (CNS Cancer)
NCI/ADR-RES = test: NCI 60 cell line screen; format: cell-based, human; conditions: NCI/ADR-RES (Ovarian Cancer); one-dose 10 µM
RPMI-8226 = test: NCI 60 cell line screen; format: cell-based, human; conditions: RPMI-8226 (Leukemia)
HOP-92 = test: NCI 60 cell line screen; format: cell-based, human; conditions: HOP-92 (Non-Small Cell Lung Cancer)
HCT-15 = test: NCI 60 cell line screen; format: cell-based, human; conditions: HCT-15 (Colon Cancer)
KM12 = test: NCI 60 cell line screen; format: cell-based, human; conditions: KM12 (Colon Cancer)
[1] = test system: MCF-7 human breast cancer cells; test: Lactate dehydrogenase (LDH) cytotoxicity assay in MCF-7; format: cell-based; conditions: % cell lysis at 10 µM
Method in brief: (§1)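 Cells seeded at 1 × 10^4 per well and grown 24 h, then dosed with compounds over 1 nM–50 μM. Cell lysis quantified as released cytoplasmic LDH using the CytoTox 96 nonradioactive cytotoxicity assay.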

SNB-75 = test: NCI 60 cell line screen; format: cell-based, human; conditions: SNB-75 (CNS Cancer)
[2] = test system: MDA-MB-231 human breast cancer cells; test: Lactate dehydrogenase (LDH) cytotoxicity assay in MDA-MB-231; format: cell-based; conditions: % cell lysis at 10 μM
Method in brief: as §1

SF-268 = test: NCI 60 cell line screen; format: cell-based, human; conditions: SF-268 (CNS Cancer)
OVCAR-3 = test: NCI 60 cell line screen; format: cell-based, human; conditions: OVCAR-3 (Ovarian Cancer); one-dose 10 µM
OVCAR-4 = test: NCI 60 cell line screen; format: cell-based, human; conditions: OVCAR-4 (Ovarian Cancer); one-dose 10 µM
NCI-H226 = test: NCI 60 cell line screen; format: cell-based, human
DU-145 = test: NCI 60 cell line screen; format: cell-based, human; conditions: DU-145 (Prostate cancer)
A549/ATCC = test: NCI 60 cell line screen; format: cell-based, human; conditions: A549/ATCC (Non-Small Cell Lung Cancer)
MOLT-4 = test: NCI 60 cell line screen; format: cell-based, human; conditions: MOLT-4 (Leukemia)
SK-MEL-5 = test: NCI 60 cell line screen; format: cell-based
HCT-2998 = test: NCI 60 cell line screen; format: cell-based, human; conditions: HCT-2998 (Colon Cancer)
SF539 = test: NCI 60 cell line screen; format: cell-based, human; conditions: SF539 (CNS Cancer)
HCT-116 = test: NCI 60 cell line screen; format: cell-based, human; conditions: HCT-116 (Colon Cancer)
PC-3 = test: NCI 60 cell line screen; format: cell-based, human; conditions: PC-3 (Prostate cancer)
K-562 = test: NCI 60 cell line screen; format: cell-based, human; conditions: K-562 (Leukemia)
NCI-H552 = test: NCI 60 cell line screen; format: cell-based, human; conditions: NCI-H552 (Non-Small Cell Lung Cancer)
MDA-MB-468 = test: NCI 60 cell line screen; format: cell-based, human; conditions: MDA-MB-468 (Breast Cancer); one-dose 10 µM
MALME-3M = test: NCI 60 cell line screen; format: cell-based, human; conditions: MALME-3M (Melanoma); one-dose 10 µM
[3] = Homo sapiens, 60 cell, five-dose screen

CCC(=C(c1ccc(O)cc1)c1ccc(OCCN(C)C(=O)/C(=C/c2ccc(OC)c(O)c2)c2cc(OC)c(OC)c(OC)c2)cc1)c1ccc(O)cc1 (mixture of isomers) [Compound 28, (E)-N-(2-{4-[(E/Z)-1,2-Bis-(4-hydroxyphenyl)but-1-enyl]-phenoxy}ethyl)-3-(3-hydroxy-4-methoxyphenyl)-N-methyl-2-(3,4,5-trimethoxyphenyl)acrylamide]
GI50 (NCI-H332M; Homo sapiens, five-dose screen): 2020 nM | GI% (10^−5 M) (NCI-H332M; one-dose 10 µM): 81.7% | CC50 (NCI 60 cell lines; in all but 4 cell lines of the panel, read-out: LC50 (the source's name)): > 50000 nM | GI50 (NCI 60 cell lines; read-out: MG-MID, mean GI50): 1450 nM | GI50 (NCI 60 cell lines; read-out: log GI50 (mean) (converted)): 1620 nM | inhibition at 10 µM (NCI 60 cell lines; read-out: mean growth inhibition value): 98.7% | GI50 (SNB-19; Homo sapiens, five-dose screen): 1720 nM | GI% (10^−5 M) (SNB-19; one-dose 10 µM): 81.49% | IC50 (MCF-7; MCF7, read-out: GI50 (IC50)): 9.5 nM | CC50 (MCF-7; MCF7, MCF-7, five-dose screen, read-out: LC50 (the source's name)): > 50000 nM | GI50 (NCI-H460; Homo sapiens, five-dose screen): 1420 nM | GI% (10^−5 M) (NCI-H460; one-dose 10 µM): 98% and 98.38% | GI% (10^−5 M) (IGROV1): 2.3% | GI50 (SF295; Homo sapiens, SF-295, five-dose screen): 1740 nM | GI% (10^−5 M) (SF295; one-dose 10 µM): 73.4% | GI% (10^−5 M) (NCI/ADR-RES): 6.02% | GI50 (RPMI-8226; Homo sapiens, five-dose screen): 896 nM | GI% (10^−5 M) (RPMI-8226; one-dose 10 µM): 91% and 90.65% | GI% (10^−5 M) (HOP-92; one-dose 10 µM): 86.19% | GI50 (HOP-92; Homo sapiens, five-dose screen): 764 nM | GI% (10^−5 M) (HCT-15; one-dose 10 µM): 100 ^d,k % | GI50 (HCT-15; Homo sapiens, five-dose screen): 1530 nM | GI50 (KM12; Homo sapiens, five-dose screen): 1260 nM | GI% (10^−5 M) (KM12; one-dose 10 µM): 100 ^d,m % | % Cell Death at 10 μM [1]: 17% | GI50 (SNB-75; Homo sapiens, five-dose screen): 5960 nM | GI% (10^−5 M) (SNB-75; one-dose 10 µM): 60.65% | % Cell Death at 10 μM [2]: 15% | GI50 (SF-268; Homo sapiens, five-dose screen): 1690 nM | GI% (10^−5 M) (SF-268; one-dose 10 µM): 84.22% | GI% (10^−5 M) (OVCAR-3): 1% | GI% (10^−5 M) (OVCAR-4): 2.59% | GI50 (NCI-H226; Homo sapiens, NCI-H226 (Non-Small Cell Lung Cancer), five-dose screen): 1180 nM | GI% (10^−5 M) (NCI-H226; NCI-H226 (Non-Small Cell Lung Cancer), one-dose 10 µM): 100 ^d,g % | lethality (NCI-H226; NCI-H226, one-dose screen 10 μM): 73% | GI% (10^−5 M) (DU-145; one-dose 10 µM): 100 ^d,o % | GI50 (DU-145; Homo sapiens, five-dose screen): 1660 nM | GI% (10^−5 M) (A549/ATCC; one-dose 10 µM): 86.97% | GI50 (A549/ATCC; Homo sapiens, five-dose screen): 2880 nM | GI50 (MOLT-4; Homo sapiens, five-dose screen): 1520 nM | GI% (10^−5 M) (MOLT-4; one-dose 10 µM): 64.31% | CC50 (SK-MEL-5; Homo sapiens, five-dose screen, read-out: LC50 (the source's name)): 34500 nM | lethality (SK-MEL-5; one-dose screen 10 μM): 60% | GI% (10^−5 M) (HCT-2998; one-dose 10 µM): 100 ^d,j % | GI50 (HCT-2998; [3]): 1250 nM | GI50 (SF539; Homo sapiens, SF-539, five-dose screen): 1180 nM | GI% (10^−5 M) (SF539; one-dose 10 µM): 100 ^d,n % | GI% (10^−5 M) (HCT-116; one-dose 10 µM): 98% and 97.57% | GI50 (HCT-116; Homo sapiens, five-dose screen): 1800 nM | GI50 (PC-3; Homo sapiens, five-dose screen): 1730 nM | GI% (10^−5 M) (PC-3; one-dose 10 µM): 86.32% | GI50 (K-562; Homo sapiens, K562, five-dose screen): 2570 nM | GI% (10^−5 M) (K-562; one-dose 10 µM): 86.1% | GI50 (NCI-H552; [3]): 1390 nM | GI% (10^−5 M) (NCI-H552; one-dose 10 µM): 100 ^d,h % | GI% (10^−5 M) (MDA-MB-468): 1.12% | GI% (10^−5 M) (MALME-3M): 1.76%
